Results on 1 compound are retold here after article PMC12024912, “Druggability Studies of Benzene Sulfonamide Substituted Diarylamide (E3) as a Novel Diuretic” (Biomedicines, 2025).

The nature of data set [1]: Liver microsome metabolic stability, rat. Type of data set: in vitro ADME. Conditions: 60 min incubation, 37 °C. As to the method:
(§1) Plasma from mice, rats, rabbits, and humans was obtained from blood after centrifugation at 3000 r/min for 10 min. Simulated gastric fluid (SGF, pH = 1, containing pepsin) and simulated intestinal fluid (SIF, pH = 6.8, containing trypsin) were configured previously in the experiments. SD rats and mice were collected, and after removing the mucus layer from the small intestine and colon, 20 times the volume of liquid bacterial culture medium was added. An intestinal microbiota suspension was obtained after anaerobic cultivation on a shaking table at 37 °C for 12 h. In the aforementioned systems, E3 was added at a final concentration of 1 μmol/L at 37 °C for different incubation times (0, 10, 20, 30, 60, 120, and 240 min). In liver metabolic stability assays, E3 was incubated with liver microsomes or liver homogenate from mice or rats for 60 min at 37 °C. The stop solution, 5 ng/mL tolbutamide (internal standard, IS) in acetonitrile, was added to stop the metabolic process. Post-centrifugation (18,000× g, 10 min, 4 °C), supernatants were subjected to liquid chromatography–tandem mass spectrometry (LC–MS/MS). Analyte-to-IS peak area ratios quantified residual percentages via Equation (2):Remaining% = (E3peak area/ISpeak area at different time)/(E3peak area/ISpeak area at 0 min) × 100%.(2)
Background: Microsomes from liver hold many membrane-bound enzymes, among them those of drug oxidation.

For data set [2], the system named is rat hyponatremia model caused by SIADH. In words: Rat hyponatremia model caused by SIADH (dDAVP). Type of data set: in vivo. Here is the method:
The protocol for dDAVP-induced hyponatremia was adapted from a previous study, with tolvaptan chosen as the positive control. Preliminary experiments determined the dose of dDAVP (0.25 ng/h). Under isoflurane anesthesia, a 0.5 μg/mL dDAVP solution was injected subcutaneously using an osmotic minipump (ALZET 2002, Cupertino, CA, USA; 200 μL, low rate of 0.5 μL/h for […]). Rats were housed individually in metabolic cages to collect urine. Before using the pump, they were given 62.5 mL/d 1.0 kcal/mL of liquid food. After pump implantation, the rats received 40 mL of 2.1 kcal/mL of liquid feed daily. The rats were divided into five groups: control group (sham operation), model group (0.5% poloxamer, solvent), 4 mg/kg tolvaptan group, 4 mg/kg E3 group, and 20 mg/kg E3 group. E3 was administered orally every 8 h, while tolvaptan was given intragastrically once daily. At the end of the experiment, the rats were sacrificed.

The nature of data set [3]: Liver homogenate metabolic stability, mouse. Type of data set: in vitro ADME. Here is the method: as §1
A short description of data set [4]: Liver microsome metabolic stability, mouse. Type of data set: in vitro ADME. Conditions: 60 min incubation, 37 °C. As to the method: as §1
Data set [5] is described as follows: Intestinal microbiota stability, rat. Type of data set: in vitro ADME. As to conditions: Sprague-Dawley. Here is the method:
as §1

Data set [6] is described as follows: Intestinal microbiota stability (colon and small intestine), rats and mice together. Conditions: after 4 h. Type of data set: in vitro ADME, SD rats and mice. As to the method:
as §1

In another data set the target is T1, rat UT-A1 (Rattus norvegicus, UniProt Q62668).
T1 construct: expressed in transfected cells
T1 sequence (Q62668 1-929): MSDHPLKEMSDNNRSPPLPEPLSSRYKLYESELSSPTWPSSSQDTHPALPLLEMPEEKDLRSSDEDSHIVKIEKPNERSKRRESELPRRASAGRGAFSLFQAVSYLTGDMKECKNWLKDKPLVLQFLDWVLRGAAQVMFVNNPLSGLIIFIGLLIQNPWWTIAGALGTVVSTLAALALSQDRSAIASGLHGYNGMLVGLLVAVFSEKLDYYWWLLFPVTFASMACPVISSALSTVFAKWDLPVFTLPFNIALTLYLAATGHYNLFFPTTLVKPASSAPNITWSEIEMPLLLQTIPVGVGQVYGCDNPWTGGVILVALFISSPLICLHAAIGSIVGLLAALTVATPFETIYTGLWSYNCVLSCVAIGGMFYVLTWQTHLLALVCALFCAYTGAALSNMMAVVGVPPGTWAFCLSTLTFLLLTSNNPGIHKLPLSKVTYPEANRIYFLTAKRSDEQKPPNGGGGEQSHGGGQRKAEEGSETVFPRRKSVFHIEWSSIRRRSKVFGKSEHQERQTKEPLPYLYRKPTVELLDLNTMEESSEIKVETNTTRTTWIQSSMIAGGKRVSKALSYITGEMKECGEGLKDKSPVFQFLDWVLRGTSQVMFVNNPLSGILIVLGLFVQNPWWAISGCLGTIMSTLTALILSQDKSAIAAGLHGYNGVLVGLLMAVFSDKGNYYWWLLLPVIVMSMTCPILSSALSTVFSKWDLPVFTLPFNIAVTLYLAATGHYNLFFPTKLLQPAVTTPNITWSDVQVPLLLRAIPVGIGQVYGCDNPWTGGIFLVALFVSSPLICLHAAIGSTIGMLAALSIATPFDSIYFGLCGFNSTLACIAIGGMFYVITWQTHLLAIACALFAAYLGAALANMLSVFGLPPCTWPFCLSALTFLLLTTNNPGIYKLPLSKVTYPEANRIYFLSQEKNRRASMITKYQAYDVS
The experiment in a line: Transwell assay of UT-A1 inhibition in UT-A1-MDCK cells. Type of data set: cell-based. Conditions: read-out: IC50 against UT-A1-mediated urea permeability. As to the method: MDCK cells stably expressing rat UT-A1 or UT-B were cultured in DMEM supplemented with 10% FBS, and the mRNA levels of UT-A1 and UT-B were measured in our previous research. Urea flux was assessed according to previously established methods. MDCK cells (2 × 10^5 cells/cm^2) were grown on 12 mm collagen-coated Costar Transwell inserts (0.4 μm pore size, Corning) for 4 d at 37 °C in the presence of 5% CO2. Once the cells on the apical side formed a tight monolayer (transepithelial resistance 1 kΩ/cm^2), PBS (pH = 7.4, containing 10 μmol/L forskolin) with E3 or DMSO was added to the top (0.25 mL) and bottom (1 mL) compartments, and the cultures were incubated in the absence of urea for 30 min at 37 °C. As UT-B is located in the plasma membrane while UT-A1 resides in the cytoplasm, forskolin was used to stimulate the translocation of UT-A1 from the cytoplasm to the membrane for urea transport. Subsequently, the solution in the bottom compartment was replaced with PBS (pH 7.4, containing 10 μmol/L forskolin and E3 or DMSO) supplemented with 15 mmol/L urea. Apical fluid samples (5 μL) were collected at 0, 1, 3, 5, 10, 15, 20, 30, 40, 50, and 60 min. The samples were subjected to an assay for urea (Urea Colorimetric Assay Kit (Diacetyl Oxime Method), Elabscience, Wuhan, China) according to the kit procedure. Then, the inhibition rate was calculated as described previously.

Where [7] appears, read: SIADH rats, E3 4 or 20 mg/kg every 8 h, tolvaptan 4 mg/kg once daily, vs model rats.

pIC50: −log10 of the molar value. Where two headings read alike, the source gives them in different places.

A word on the amount remaining: it is the share of the starting amount still present when the sample was taken. As a reminder, the pIC50 is the IC50 on a negative log10 scale, so that one unit is a factor of ten. `CC(=O)c1ccc(C(=O)Nc2cccc(NS(=O)(=O)c3ccccc3)c2)o1` [Compound E3, 5-acetyl-N-(3-(phenylsulfonamido)phenyl)furan-2-carboxamide]: in data set [1], the “remaining amount, rat liver microsomes” value turned out to be 61.1%. Further, the “hyponatremia in SIADH rats” value in data set [2] (E3 4 or 20 mg/kg orally every 8 h, tolvaptan 4 mg/kg once daily, vs model) is “significantly alleviated”. Also, the serum osmolality entry in data set [2] (setting [7]) is recorded as “significantly increased”. Moreover, the serum sodium concentration result in data set [2] (setting [7]) is “significantly increased”. In data set [2] (SIADH rats, between experimental groups before and after treatment), the blood urea levels result is on record as “no significant difference”. Moreover, the “H&E staining of kidney and liver” value in data set [2] (SIADH rats, except dilatation of collecting ducts) is listed as “normal tissue structures”. In addition, the “CLhep, mouse liver homogenate” value in data set [3] (calculated with 45 mg/g liver, 50 g liver/kg) is 99.3 mL/min/kg. For the same compound, the share remaining at 1 h in data set [3] (mouse, liver homogenate, 60 min incubation, 37 °C, n=3) turned out to be 39.8%. Besides, in data set [4], the “remaining amount, mouse liver microsomes” value came out at 36.8%. For the same compound, the fraction remaining at 1 μmol/L in data set [5] (colon microbiota suspension, n=3, read-out: Rat colon microbiota (remaining %)) was found to be 82.3%; in data set [5] (small intestine microbiota suspension, n=3, read-out: Rat small intestine microbiota (remaining %)), 87.4%. For the same compound, the “E3 remaining with intestinal microbiota (colon and small intestine)” value in data set [6] is “over 82%”. For the same compound, the pIC50 at rat UT-A1 was 7.74.
